In assay [1] the target is Pim-1 (Homo sapiens (Human), UniProt P11309). Description: Pim-Mn enzyme assay (HTRF, 384-well), Pim-1. Type of assay: biochemical. The following applies: read-out: Pim-1-Mn IC50 IP. In general terms: TR-FRET usually uses a lanthanide donor and a delayed reading to cut background.
Assay [2] concerns the target Pim-2 (Homo sapiens (Human), UniProt Q9P1W9). Description: Pim-Mn enzyme assay (HTRF, 384-well), Pim-2. In kind it is biochemical. The following applies: read-out: Pim-2-Mn IC50 IP.
Assay [3] relates to KMS-12-BM cell lines. Description: KMS12 #2 flow cytometry assay (phospho-BAD Ser112). The following applies: Homo sapiens, 110 min; KMS-12-BM cells, pBAD Ser112 by flow cytometry, 110 min with compound; read-out: KMS-12-Flow IC50 IP. In kind it is cell-based.
Setting [4] is: Pim-1 enzyme 5 pM, ATP 1.5 μM, BAD (S112) 0.5 μM, HTRF, 22-point curve.
Setting [5] is: Pim-2 enzyme 0.5 pM, ATP 1.5 μM, BAD (S112) 0.5 μM, HTRF, 22-point curve.

Molecules are shown by their SMILES. Like-named read-outs stand apart in the source and are kept apart here.

Sequence of Pim-1 (P11309 whole entry): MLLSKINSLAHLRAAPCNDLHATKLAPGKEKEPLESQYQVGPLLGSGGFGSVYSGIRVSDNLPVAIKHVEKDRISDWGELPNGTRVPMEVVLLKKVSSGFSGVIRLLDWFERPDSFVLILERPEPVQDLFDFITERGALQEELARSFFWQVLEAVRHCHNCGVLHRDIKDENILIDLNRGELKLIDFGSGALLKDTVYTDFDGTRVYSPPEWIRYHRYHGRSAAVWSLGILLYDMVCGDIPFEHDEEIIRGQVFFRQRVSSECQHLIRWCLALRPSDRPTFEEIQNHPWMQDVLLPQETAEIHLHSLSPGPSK
Sequence of Pim-2 (Q9P1W9 whole entry): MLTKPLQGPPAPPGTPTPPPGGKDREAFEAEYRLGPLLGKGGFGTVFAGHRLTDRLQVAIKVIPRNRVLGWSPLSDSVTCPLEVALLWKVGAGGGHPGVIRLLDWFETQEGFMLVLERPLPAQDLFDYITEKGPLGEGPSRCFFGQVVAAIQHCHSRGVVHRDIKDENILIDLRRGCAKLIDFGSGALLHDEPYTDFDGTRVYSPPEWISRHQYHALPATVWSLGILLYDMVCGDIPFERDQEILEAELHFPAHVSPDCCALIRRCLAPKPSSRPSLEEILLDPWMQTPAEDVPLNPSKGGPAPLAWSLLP

One may read the IC50 as the point on the concentration scale where inhibition reaches its midpoint. With `Cc1nc2ccc(F)c(-c3cc4c([nH]3)[C@H](C)NC4=O)c2nc1NC1CC1` [Example 285, (S)-2-(3-(cyclopropylamino)-6-fluoro-2-methylquinoxalin-5-yl)-6-methyl-5,6-dihydropyrrolo[3,4-b]pyrrol-4(1H)-one], the IC50 in assay [1] (setting [4]) turned out to be 0.534 nM; in assay [2] (setting [5]) it was 0.902 nM; in assay [3], 51.8 nM.
For `Cc1nc2cccc(-c3cc4c([nH]3)[C@@H](C)NC4=O)c2nc1NC(C)C` [Example 287, (6R)-6-methyl-2-(2-methyl-3-((1-methylethyl)amino)-5-quinoxalinyl)-5,6-dihydropyrrolo[3,4-b]pyrrol-4(1H)-one] the same measures were 1.78 nM, 1.64 nM and 75.8 nM.
For `Cc1nc2cccc(-c3cc4c(n3C(=O)OC(C)(C)C)CCNC4=O)c2nc1NC(C)(C)C` [Example 290, tert-butyl 2-(3-(tert-butylamino)-2-methylquinoxalin-5-yl)-4-oxo-4,5,6,7-tetrahydro-1H-pyrrolo[3,2-c]pyridine-1-carboxylate] the same measures were 39.7 nM, 35.8 nM and 4190 nM.
For `Cc1nc2cccc(-c3cc4c([nH]3)CCN(C(=O)OC(C)(C)C)C4=O)c2nc1NC(C)(C)C` [Example 291, tert-butyl 2-(3-(tert-butylamino)-2-methylquinoxalin-5-yl)-4-oxo-6,7-dihydro-1H-pyrrolo[3,2-c]pyridine-5(4H)-carboxylate] the same measures were 99 nM, 65.2 nM and 7920 nM.
`Cc1nc2cccc(-c3cc4c([nH]3)CCNC4=S)c2nc1NC(C)(C)C` [Example 292, 2-(3-(tert-butylamino)-2-methylquinoxalin-5-yl)-6,7-dihydro-1H-pyrrolo[3,2-c]pyridine-4(5H)-thione]: the IC50 is 1.61 nM in assay [1] (setting [4]), 2.54 nM in assay [2] (setting [5]) and 657 nM in assay [3].
For `Cc1nc2cccc(-c3cc4c([nH]3)[C@H](C)NC4=O)c2nc1NCC(F)(F)F` [Example 293, (6S)-6-methyl-2-(2-methyl-3-((2,2,2-trifluoroethyl)amino)-5-quinoxalinyl)-5,6-dihydropyrrolo[3,4-b]pyrrol-4(1H)-one] the same measures were 6.37 nM, 6.02 nM and 410 nM.
For `Cc1nc2cccc(-c3cc4c([nH]3)[C@@H](C)NC4=O)c2nc1NCC(F)(F)F` [Example 294, (6R)-6-methyl-2-(2-methyl-3-((2,2,2-trifluoroethyl)amino)-5-quinoxalinyl)-5,6-dihydropyrrolo[3,4-b]pyrrol-4(1H)-one], the results for the IC50 in assay [1] (setting [4]), in assay [2] (setting [5]) and in assay [3] were 1.23 nM, 2.23 nM and 165 nM, respectively.
For `Cc1nc2ccc(F)c(-c3cc4c([nH]3)C3(CC3)NC4=O)c2nc1NC(C)(C)C` [Example 295, 2′-(3-(tert-butylamino)-6-fluoro-2-methylquinoxalin-5-yl)-1′H-spiro[cyclopropane-1,6′-pyrrolo[3,4-b]pyrrol]-4′(5′H)-one], the IC50 in assay [1] was found to be 0.562 nM; in assay [2] (setting [5]), 0.52 nM; in assay [3] it was 41 nM.
For the molecule `Cc1nc2ccc(F)c(-c3cc4c([nH]3)CNC4=O)c2nc1NC(C)(C)C` [Example 296, 2-(3-(tert-butylamino)-6-fluoro-2-methyl-5-quinoxalinyl)-5,6-dihydropyrrolo[3,4-b]pyrrol-4(1H)-one], the IC50 turned out to be 0.508 nM in assay [1] (setting [4]), 0.501 nM in assay [2] (setting [5]) and 36.2 nM in assay [3].
On the same counts, the results for `Cc1nc2cccc(-c3cc4c([nH]3)CCN(CO)C4=O)c2nc1NC(C)(C)C` [Example 299, 2-(3-(tert-butylamino)-2-methylquinoxalin-5-yl)-5-(hydroxymethyl)-6,7-dihydro-1H-pyrrolo[3,2-c]pyridin-4(5H)-one] are 7 nM, 9 nM and greater than 40000 nM.
On the same counts, the results for `Cc1nc2cccc(-c3cc4c([nH]3)CNC4=O)c2nc1NCC(F)(F)F` [Example 301, 2-(2-methyl-3-((2,2,2-trifluoroethyl)amino)-5-quinoxalinyl)-5,6-dihydropyrrolo[3,4-b]pyrrol-4(1H)-one] are 1.25 nM, 1.91 nM and 341 nM.
Consider `Cc1nc2cccc(-c3cc4c([nH]3)[C@@H](C)NC4=O)c2nc1NC(C)(C)CO` [Example 302, (6R)-2-(3-((2-hydroxy-1,1-dimethylethyl)amino)-2-methyl-5-quinoxalinyl)-6-methyl-5,6-dihydropyrrolo[3,4-b]pyrrol-4(1H)-one], for which the IC50 in assay [1] worked out at 1.84 nM; in assay [2], 1.45 nM; in assay [3], 71.2 nM.
Consider `Cc1nc2cccc(-c3cc4c([nH]3)CCCC4=O)c2nc1NC(C)(C)C` [Example 303, 2-(3-(tert-butylamino)-2-methylquinoxalin-5-yl)-6,7-dihydro-1H-indol-4(5H)-one], for which the IC50 in assay [1] (setting [4]) is 0.839 nM; in assay [2] (setting [5]), 1.47 nM; in assay [3] it was 572 nM.
With `CC(C)(C)Nc1nc2c(-c3cc4c([nH]3)CCNC4=O)cccc2nc1N` [Example 304, 2-(2-amino-3-(tert-butylamino)quinoxalin-5-yl)-6,7-dihydro-1H-pyrrolo[3,2-c]pyridin-4(5H)-one], the IC50 worked out at 0.791 nM in assay [1] (setting [4]), 0.429 nM in assay [2] (setting [5]) and 87.6 nM in assay [3].
For `CC(C)(C)Nc1nc2c(-c3cc4c([nH]3)CCNC4=O)cccc2nc1CO` [Example 306, 2-(3-(tert-butylamino)-2-(hydroxymethyl)quinoxalin-5-yl)-6,7-dihydro-1H-pyrrolo[3,2-c]pyridin-4(5H)-one] the same measures were 2.12 nM, 2.26 nM and 558 nM.
For `C#Cc1nc2cccc(-c3cc4c([nH]3)CCNC4=O)c2nc1NC(C)(C)C` [Example 307, 2-(3-(tert-butylamino)-2-ethynylquinoxalin-5-yl)-6,7-dihydro-1H-pyrrolo[3,2-c]pyridin-4(5H)-one] the same measures were 1.63 nM, 1.45 nM and 590 nM.
For `CC(C)(C)Nc1nc2c(-c3cc4c([nH]3)CCNC4=O)cccc2nc1/C=N/O` [Example 308, (E)-3-(tert-butylamino)-5-(4-oxo-4,5,6,7-tetrahydro-1H-pyrrolo[3,2-c]pyridin-2-yl)quinoxaline-2-carbaldehyde oxime], the figures for the IC50 in assay [1] (setting [4]), in assay [2] (setting [5]) and in assay [3] were 1.05 nM, 1.27 nM and 177 nM, respectively.
On the same counts, the results for `CC(C)(C)Nc1nc2c(-c3cc4c([nH]3)CCNC4=O)cccc2nc1C#N` [Example 309, 3-(tert-butylamino)-5-(4-oxo-4,5,6,7-tetrahydro-1H-pyrrolo[3,2-c]pyridin-2-yl)quinoxaline-2-carbonitrile] are 3.55 nM, 3.76 nM and 1160 nM.
For `C[C@H](O)c1nc2cccc(-c3cc4c([nH]3)CCNC4=O)c2nc1NC(C)(C)C` [Example 310, (S)-2-(3-(tert-butylamino)-2-(1-hydroxyethyl)quinoxalin-5-yl)-6,7-dihydro-1H-pyrrolo[3,2-c]pyridin-4(5H)-one], the IC50 in assay [1] (setting [4]) was found to be 4 nM; in assay [2] (setting [5]), 3 nM; in assay [3], 344 nM.
As for `C[C@@H](O)c1nc2cccc(-c3cc4c([nH]3)CCNC4=O)c2nc1NC(C)(C)C` [Example 311, (R)-2-(3-(tert-butylamino)-2-(1-hydroxyethyl)quinoxalin-5-yl)-6,7-dihydro-1H-pyrrolo[3,2-c]pyridin-4(5H)-one], the IC50 in assay [1] (setting [4]) is 1.98 nM; in assay [2] (setting [5]), 1.95 nM; in assay [3], 151 nM.
For `CCc1nc2cccc(-c3cc4c([nH]3)CCNC4=O)c2nc1NC(C)(C)C` [Example 312, 2-(3-(tert-butylamino)-2-ethylquinoxalin-5-yl)-6,7-dihydro-1H-pyrrolo[3,2-c]pyridin-4(5H)-one] the same measures were 0.271 nM, 0.195 nM and 123 nM.
On the same counts, the results for `Cc1nc2cccc(-c3cc4c(n3C)CCNC4=O)c2nc1NC(C)(C)C` [Example 314, 2-(3-(tert-butylamino)-2-methylquinoxalin-5-yl)-1-methyl-6,7-dihydro-1H-pyrrolo[3,2-c]pyridin-4(5H)-one] are 9.48 nM, 8.58 nM and 6730 nM.
On the same counts, the results for `Cc1nc2cccc(-c3cc4c([nH]3)C(C)N(C(=O)OC(C)(C)C)C4=O)c2nc1NC(C)(C)C` (stereo not drawn) [Example 316, tert-butyl 2-(3-(tert-butylamino)-2-methylquinoxalin-5-yl)-6-methyl-4-oxo-4,6-dihydropyrrolo[3,4-b]pyrrole-5(1H)-carboxylate] are 36 nM, 75 nM and 21500 nM.
Take `COCCOCC(C)(C)Nc1nc2c(-c3cc4c([nH]3)CCNC4=O)cccc2nc1C` [Example 317, 2-(3-((2-(2-methoxyethoxy)-1,1-dimethylethyl)amino)-2-methyl-5-quinoxalinyl)-1,5,6,7-tetrahydro-4H-pyrrolo[3,2-c]pyridin-4-one]: the IC50 is 9.94 nM in assay [1] (setting [4]), 14.7 nM in assay [2] (setting [5]) and 1360 nM in assay [3].
On the same counts, the results for `Cc1nc2cccc(-c3cc4c([nH]3)CCNC4=O)c2nc1N1CC(S(C)(=O)=O)C1` [Example 318, 2-(2-methyl-3-(3-(methylsulfonyl)-1-azetidinyl)-5-quinoxalinyl)-1,5,6,7-tetrahydro-4H-pyrrolo[3,2-c]pyridin-4-one] are 34.1 nM, 26.7 nM and greater than 40000 nM.
In the case of `Cc1nccn1-c1cnc2cccc(-c3cc4c([nH]3)CCNC4=O)c2n1` [Example 320], the half-maximal inhibitory concentration (IC50) in assay [1] (setting [4]) is 176 nM; in assay [2] (setting [5]) it was 272 nM; in assay [3] it was greater than 40000 nM.
